Assay results taken from ChEMBL document CHEMBL1201862, “PubChem BioAssay data set” (2004).
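Where inhibition never reached the appropriate level, the endpoint shown equals the highest concentration tested. Otherwise, values were interpolated linearly from a five-concentration, 48-hour dose response in 96-well plates. Abbreviation: GI50, concentration required for 50% inhibition of growth.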 Active and inactive are the calls of the source. Cut-off read from the data, not from the text of the source: active = GI50 up to about 1.1 µM and inactive = higher.

Assays:
Assay in all cases: growth of human tumour cells (NCI), 48 h
SK-MEL-2 = test system: SK-MEL-2
MDA-MB-435 = test system: MDA-MB-435
K562 = test system: K562
UACC-257 = test system: UACC-257
HOP-92 = test system: HOP-92
RXF 393 = test system: RXF 393
SW-620 = test system: SW-620
M14 = test system: M14
SK-MEL-28 = test system: SK-MEL-28
IGROV-1 = test system: IGROV-1
MDA-N = test system: MDA-N
SF-268 = test system: SF-268
PC-3 = test system: PC-3
UACC-62 = test system: UACC-62
TK-10 = test system: TK-10
ACHN = test system: ACHN
OVCAR-5 = test system: OVCAR-5
A549 = test system: A549
KM12 = test system: KM12
NCI/ADR-RES = test system: NCI/ADR-RES
SR = test system: SR
SK-MEL-5 = test system: SK-MEL-5
NCI-H23 = test system: NCI-H23
U-251 = test system: U-251
HCT-116 = test system: HCT-116
OVCAR-3 = test system: OVCAR-3
HCT-15 = test system: HCT-15
LOX IMVI = test system: LOX IMVI
MDA-MB-231 = test system: MDA-MB-231
Hs-578T = test system: Hs-578T
DU-145 = test system: DU-145
HT-29 = test system: HT-29
A498 = test system: A498
SNB-75 = test system: SNB-75
COLO 205 = test system: COLO 205
UO-31 = test system: UO-31
SF-295 = test system: SF-295
NCI-H460 = test system: NCI-H460
Malme-3M = test system: Malme-3M
OVCAR-4 = test system: OVCAR-4
NCI-H226 = test system: NCI-H226
EKVX = test system: EKVX
NCI-H522 = test system: NCI-H522
SK-OV-3 = test system: SK-OV-3
MOLT-4 = test system: MOLT-4
MCF7 = test system: MCF7
SF-539 = test system: SF-539
OVCAR-8 = test system: OVCAR-8
RPMI-8226 = test system: RPMI-8226
BT-549 = test system: BT-549
786-0 = test system: 786-0
SNB-19 = test system: SNB-19
T47D = test system: T47D
CAKI-1 = test system: CAKI-1
SN12C = test system: SN12C
HOP-62 = test system: HOP-62
HL-60 = test system: HL-60

## O=C(CCN1CCCCC1)c1csc2ccccc12
SK-MEL-2
  GI50: > 100 µM (inactive)
MDA-MB-435
  GI50: > 100 µM (inactive)
K562
  GI50: > 100 µM (inactive)
UACC-257
  GI50: > 100 µM (inactive)
HOP-92
  GI50: > 100 µM (inactive)
RXF 393
  GI50: > 100 µM (inactive)
SW-620
  GI50: > 100 µM (inactive)
M14
  GI50: > 100 µM (inactive)
SK-MEL-28
  GI50: > 100 µM (inactive)
IGROV-1
  GI50: > 100 µM (inactive)
MDA-N
  GI50: > 100 µM (inactive)
SF-268
  GI50: > 100 µM (inactive)
PC-3
  GI50: > 100 µM (inactive)
UACC-62
  GI50: > 100 µM (inactive)
TK-10
  GI50: 94.6 µM (inactive)
ACHN
  GI50: > 100 µM (inactive)
OVCAR-5
  GI50: > 100 µM (inactive)
A549
  GI50: > 100 µM (inactive)
KM12
  GI50: 33.1 µM (inactive)
NCI/ADR-RES
  GI50: > 100 µM (inactive)
SR
  GI50: > 100 µM (inactive)
SK-MEL-5
  GI50: > 100 µM (inactive)
NCI-H23
  GI50: > 100 µM (inactive)
U-251
  GI50: > 100 µM (inactive)
HCT-116
  GI50: > 100 µM (inactive)
OVCAR-3
  GI50: > 100 µM (inactive)
HCT-15
  GI50: > 100 µM
LOX IMVI
  GI50: > 100 µM (inactive)
MDA-MB-231
  GI50: > 100 µM (inactive)
Hs-578T
  GI50: > 100 µM (inactive)
DU-145
  GI50: > 100 µM (inactive)
HT-29
  GI50: > 100 µM (inactive)
A498
  GI50: > 100 µM (inactive)
SNB-75
  GI50: > 100 µM (inactive)
COLO 205
  GI50: > 100 µM (inactive)
UO-31
  GI50: > 100 µM (inactive)
SF-295
  GI50: > 100 µM (inactive)
NCI-H460
  GI50: > 100 µM (inactive)
Malme-3M
  GI50: > 100 µM (inactive)
OVCAR-4
  GI50: > 100 µM (inactive)
NCI-H226
  GI50: > 100 µM (inactive)
EKVX
  GI50: > 100 µM (inactive)
NCI-H522
  GI50: > 100 µM (inactive)
SK-OV-3
  GI50: > 100 µM (inactive)
MOLT-4
  GI50: 61.2 µM (inactive)
MCF7
  GI50: 20 µM (inactive)
SF-539
  GI50: > 100 µM (inactive)
OVCAR-8
  GI50: > 100 µM (inactive)
RPMI-8226
  GI50: 10.1 µM (inactive)
BT-549
  GI50: > 100 µM (inactive)
786-0
  GI50: 50.1 µM (inactive)
SNB-19
  GI50: > 100 µM (inactive)
T47D
  GI50: 45.7 µM (inactive)
CAKI-1
  GI50: > 100 µM (inactive)
SN12C
  GI50: > 100 µM (inactive)
HOP-62
  GI50: > 100 µM (inactive)

## O=C1C[S+]([O-])C23c4cc5ccccc5n4CCC2CCCN13 (stereo not given)
SK-MEL-2
  GI50: > 100 µM (inactive)
MDA-MB-435
  GI50: > 100 µM (inactive)
K562
  GI50: > 100 µM (inactive)
UACC-257
  GI50: > 100 µM (inactive)
HOP-92
  GI50: > 100 µM (inactive)
RXF 393
  GI50: > 100 µM (inactive)
SW-620
  GI50: > 100 µM (inactive)
M14
  GI50: > 100 µM (inactive)
SK-MEL-28
  GI50: > 100 µM (inactive)
IGROV-1
  GI50: > 100 µM (inactive)
MDA-N
  GI50: > 100 µM (inactive)
SF-268
  GI50: > 100 µM (inactive)
PC-3
  GI50: > 100 µM (inactive)
UACC-62
  GI50: > 100 µM (inactive)
TK-10
  GI50: > 100 µM (inactive)
ACHN
  GI50: > 100 µM (inactive)
OVCAR-5
  GI50: > 100 µM (inactive)
A549
  GI50: > 100 µM (inactive)
KM12
  GI50: > 100 µM (inactive)
NCI/ADR-RES
  GI50: > 100 µM (inactive)
SR
  GI50: > 100 µM (inactive)
SK-MEL-5
  GI50: > 100 µM (inactive)
NCI-H23
  GI50: > 100 µM (inactive)
U-251
  GI50: > 100 µM (inactive)
HCT-116
  GI50: > 100 µM (inactive)
OVCAR-3
  GI50: > 100 µM (inactive)
HCT-15
  GI50: > 100 µM
LOX IMVI
  GI50: > 100 µM (inactive)
MDA-MB-231
  GI50: > 100 µM (inactive)
Hs-578T
  GI50: > 100 µM (inactive)
DU-145
  GI50: > 100 µM (inactive)
HT-29
  GI50: > 100 µM (inactive)
A498
  GI50: > 100 µM (inactive)
COLO 205
  GI50: > 100 µM (inactive)
SF-295
  GI50: > 100 µM (inactive)
Malme-3M
  GI50: > 100 µM (inactive)
OVCAR-4
  GI50: > 100 µM (inactive)
NCI-H226
  GI50: > 100 µM (inactive)
HL-60
  GI50: > 100 µM (inactive)
EKVX
  GI50: > 100 µM (inactive)
NCI-H522
  GI50: > 100 µM (inactive)
SK-OV-3
  GI50: > 100 µM (inactive)
MOLT-4
  GI50: > 100 µM (inactive)
MCF7
  GI50: > 100 µM (inactive)
SF-539
  GI50: > 100 µM (inactive)
OVCAR-8
  GI50: > 100 µM (inactive)
RPMI-8226
  GI50: > 100 µM (inactive)
BT-549
  GI50: > 100 µM (inactive)
786-0
  GI50: > 100 µM (inactive)
SNB-19
  GI50: > 100 µM (inactive)
T47D
  GI50: > 100 µM (inactive)
CAKI-1
  GI50: > 100 µM (inactive)
SN12C
  GI50: > 100 µM (inactive)
HOP-62
  GI50: > 100 µM (inactive)
